Assay results: patent publication US7256219B2, “Multifluoro-substituted chalcones and analogs as activators of caspases and inducers of apoptosis and the use thereof” (Cytovia, Inc., priority 2001, dated 2007)

Legend:
ZR-75-1 cells = assay: Caspase cascade activation (N-(Ac-DEVD)-N'-ethoxycarbonyl-R110 fluorogenic substrate) in ZR-75-1 cells; type: cell-based, Human; settings: ZR-75-1, 24 h incubation; for EC50: Homo sapiens, read-out: Caspase potency EC50; for Caspase activity Ratio (net RFU of test compound to that of control): 0.016 to 10 μM final
Procedure: (§1) Human breast cancer cell lines T-47D and ZR-75-1 were grown according to media component mixtures designated by American Type Culture Collection+10% FCS (Invitrogen Corporation, Life Technologies Division), in a 5% CO2-95% humidity incubator at 37° C. T-47D and ZR-75-1 cells were maintained at a cell density between 50 and 80% confluency at a cell density of 0.1 to 0.6×10^6 cells/ml. Cells were harvested at 600×g and resuspended at 0.65×10^6 cells/ml into appropriate media+10% FCS. An aliquot of […] of cells was added to a well of a 96-well microtiter plate containing 2.5 μl of a 10% DMSO in RPMI-1640 media solution containing 0.16 to 100 μM of 1-[2,5-bis(2,2,2-trifluoroethoxy)phenyl]-3-[4-(trifluoromethyl)phenyl]-2-propen-1-one or other test compound (0.016 to 10 μM final). An aliquot of 22.5 μl of cells was added to a well of a 384-well microtiter plate containing 2.5 μl of a 10% DMSO in RPMI-1640 media solution without test compound as the control sample. The samples were mixed by agitation and then incubated at 37° C. for 24 h in a 5% CO2-95% humidity incubator. After incubation, the samples were removed from the incubator and 25 μl of a solution containing 14 μM of N-(Ac-DEVD)-N′-ethoxycarbonyl-R110 (SEQ. ID NO:1) fluorogenic substrate (Cytovia, Inc.; WO99/18856), 20% sucrose (Sigma), 20 mM DTT (Sigma), 200 mM NaCl (Sigma), 40 mM Na PIPES buffer pH 7.2 (Sigma), and 500 μg/ml lysolecithin (Calbiochem) was added. The samples were mixed by agitation and incubated at room temperature. Using a fluorescent plate reader (Model SpectraMax Gemini, Molecular Devices), an initial reading (T=0) was made approximately 1-2 min after addition of the substrate solution, employing excitation at 485 nm and emission at 530 nm, to determine the background fluorescence of the control sample. After the 3 h incubation, the samples were read for fluorescence as above (T=3 h).
(§2) The Relative Fluorescence Unit values (RFU) were used to calculate the sample readings as follows: RFU(T=3h)−Control RFU(T=0)=Net RFU(T=3h)
(§3) The activity of caspase cascade activation was determined by the ratio of the net RFU value for 1-[2,5-bis(2,2,2-trifluoroethoxy)phenyl]-3-[4-(trifluoromethyl)phenyl]-2-propen-1-one or other test compound to that of control samples. The EC50 (nM) was determined by a sigmoidal dose-response response calculation (Prism 2.0, GraphPad Software Inc.).

T-47D cells [1] = assay: Caspase cascade activation (N-(Ac-DEVD)-N'-ethoxycarbonyl-R110 fluorogenic substrate) in T-47D cells; type: cell-based, Human; settings: 24 h incubation; for Caspase activity Ratio (net RFU of test compound to that of control): 0.016 to 10 μM final; for EC50: Homo sapiens, T47D, read-out: Caspase potency EC50
Procedure: as §1, §2, §3

PC-3 = assay: Inhibition of cell proliferation (GI50), PC-3; type: cell-based; settings: Homo sapiens, PC-3, 48 h
Procedure: (§4) All the cell lines were grown according to the conditions recommended by American Type Culture Collection. An aliquot of 90 μl of cells (2.2×10^4 cells/ml) was added to a well of a 96-well microtiter plate containing 10 μl of a 10% DMSO in RPMI-1640 media solution containing 1 nM to 100 μM of 1-[2,5-bis(2,2,2-trifluoroethoxy)phenyl]-3-[4-(trifluoromethyl)phenyl]-2-propen-1-one (0.1 nM to 10 μM final). An aliquot of 90 μl of cells was added to a well of a 96-well microtiter plate containing 10 μl of a 10% DMSO in RPMI-1640 media solution without compound as the control sample for maximal cell proliferation (AMax). The samples were mixed by agitation and then incubated at 37° C. for 48 h in a 5% CO2-95% humidity incubator. After incubation, the samples were removed from the incubator and 20 μl of CellTiter 96 AQUEOUS One Solution Cell Proliferation™ reagent (Promega) was added. […] Using an absorbance plate reader (Model 1420 Wallac Instruments), an initial reading (T=0) was made approximately 1-2 min after addition of the solution, employing absorbance at 490 nm. This determines the possible background absorbance of the test compounds. No absorbance for 1-[2,5-bis(2,2,2-trifluoroethoxy)phenyl]-3-[4-(trifluoromethyl)phenyl]-2-propen-1-one was found at 490 nm. After the 2-4 h incubation, the samples were read for absorbance as above (ATest). […]

T-47D cells [2] = assay: Cell cycle arrest and apoptosis in T-47D cells (propidium iodide flow cytometry); type: cell-based, Human; settings: 10 μM
Procedure: T-47D, a breast cancer cell line, was maintained and harvested as described in Example 23. […] As a control, cells were also incubated with equivalent amount of solvent (DMSO). Cells were harvested at 1,200 rpm and then transferred to 12×75 mm polystyrene tubes. Cells were then resuspended in 500 μl of 1% Na Citrate, 0.1% Triton X-100, and 50 μg/ml of propidium iodide and incubated at room temperature for 30 min followed by flow cytometer analysis. All flow cytometry analyses were performed on FACScalibur (Becton Dickinson) using Cell Quest analysis software. The x-axis plotted the amount of fluorescence and the y-axis is plotted the number of cells with the indicated fluorescence. […] An increase from 13% to 33% in the sub-diploid DNA content of cells (FIG. 1) is also seen with compound treatment. The sub-diploid amount of DNA is indicative of apoptotic cells which have undergone DNA degradation or fragmentation.

MDA-MB-435 = assay: Inhibition of cell proliferation (GI50), MDA-MB-435; type: cell-based; settings: Homo sapiens, MDA-MB-435, 48 h
Procedure: as §4

K562 = assay: Inhibition of cell proliferation (GI50), K562; type: cell-based; settings: Homo sapiens, K562, 48 h
Procedure: as §4

MCF-7 = assay: Inhibition of cell proliferation (GI50), MCF-7; type: cell-based; settings: Homo sapiens, MCF7; MCF-7, 48 h
Procedure: as §4

SK-Br-3 = assay: Inhibition of cell proliferation (GI50), SK-Br-3; type: cell-based; settings: Homo sapiens, SK-BR-3, 48 h
Procedure: as §4

DLD-1 = assay: Inhibition of cell proliferation (GI50), DLD-1; type: cell-based; settings: Homo sapiens, DLD-1, 48 h
Procedure: as §4

HeLa = assay: Inhibition of cell proliferation (GI50), HeLa; type: cell-based; settings: Homo sapiens, 48 h
Procedure: as §4

PANC-1 = assay: Inhibition of cell proliferation (GI50), PANC-1; type: cell-based; settings: Homo sapiens, PANC-1, 48 h
Procedure: as §4

T-47D = assay: Inhibition of cell proliferation (GI50), T-47D; type: cell-based; settings: Homo sapiens, T47D, 48 h
Procedure: as §4

Structure (SMILES)	EC50 (ZR-75-1 cells) [nM]	Caspase activity Ratio (net RFU of test compound to that of control) (ZR-75-1 cells)	Caspase activity Ratio (net RFU of test compound to that of control) (T-47D cells [1])	EC50 (T-47D cells [1]) [nM]	GI50 (PC-3) [nM]	sub-diploid DNA content of cells (M1) (T-47D cells [2]; T47D, 24 h, FIG. 1B legend)	G2/M DNA content cells (T-47D cells [2]; T-47D, FIG. 1B)	sub-diploid DNA content of cells (T-47D cells [2]; T-47D, control 13%) [%]	GI50 (MDA-MB-435) [nM]	GI50 (K562) [nM]	GI50 (MCF-7) [nM]	GI50 (SK-Br-3) [nM]	GI50 (DLD-1) [nM]	GI50 (HeLa) [nM]	GI50 (PANC-1) [nM]	GI50 (T-47D) [nM]
O=C(C=Cc1ccccc1)c1cc(OCC(F)(F)F)ccc1OCC(F)(F)F [Example 3, 1-[2,5-Bis(2,2,2-trifluoroethoxy)phenyl]-3-phenyl-2-propen-1-one]	5400	3.3	6.8	1600	–	–	–	–	–	–	–	–	–	–	–	–
O=C(C=Cc1ccc(C(F)(F)F)cc1)c1cc(OCC(F)(F)F)ccc1OCC(F)(F)F [Example 4, 1-[2,5-Bis(2,2,2-trifluoroethoxy)phenyl]-3-[4-(trifluoromethyl)phenyl]-2-propen-1-one]	6000	5.5	25.2	5000	3000	increase of sub-diploid DNA content of cells	increase in G2/M DNA content cells	33	3200	2200	2400	1800	2500	2300	3100	1500
O=C(C=Cc1ccc([N+](=O)[O-])cc1)c1cc(OCC(F)(F)F)ccc1OCC(F)(F)F [Example 15, 1-[2,5-Bis(2,2,2-trifluoroethoxy)phenyl]-3-(4-nitrophenyl)-2-propen-1-one]	6900	14.9	20.4	6800	–	–	–	–	–	–	–	–	–	–	–	–
